# Source: patent US8809368B2, “Compounds affecting gap junction activity” (Kansas State University Research Foundation, priority 2006, dated 2014)
# Tests used:
# MEC [1] = assay: MTT assay, cell viability, MEC; format: cell-based, human; settings: for cell viability compared to control: 24 hours
# Method: The cytotoxicity of PQ1 in MEC and T47D cells using MTT assay was also determined. Cells were treated with 10, 100, 200, and 500 nM PQ1 for 24 hours. MTT assay was performed according to the manufacture's recommendations. A 200 nM PQ1 has 67% cell viability compared to controls (FIG. 16). Treatments of 100 and 200 nM PQ1 have 95% and 103% MEC cell viability compared to control. However, both MEC and T47D cells decrease cell viability to 50% and 65% at 1 μM PQ1, respectively. Thus, 100-200 nM of PQ1 is sufficient to enhance GJIC activity.
# MTT assay. MTT (3-(4,5-dimethyl thiazol-2-yl)-2,5-diphenyl tetrazolium bromide) assay was performed with adherent cell cultures using a culture medium free of phenol red and of serum. Solution containing MTT was metabolized by the cells (incubation period 3 hours). MTT is a tetrazolium salt (yellowish) that is cleaved to formazan crystals by the succinate dehydrogenase system which belongs to the mitochondrial respiratory chain, and is only active in viable cells. The mitochondrial succinate dehydrogenase reduces the MTT crystals into purple formazan in the presence of an electron coupling reagent. The more viable cells will be presented in a well, the more formazan dye will be produced. After solubilization of the MTT crystals with the solubilization solution MTT, the amount of dye will be measured spectrophotometrically at 540 nm.
# MEC [2] = assay: Soft agar colony growth, MEC; format: cell-based, human; settings: 100 nM
# Method: Various oncogenes (e.g. ras, raf, neu, src, mos) down-regulate GJIC while several tumor suppressor genes can up-regulate GJIC. […] Cells were grown in soft agar to assess their capacity for anchorage-independent growth, which is a key feature of cell transformation due to the importance of cell-cell and cell-matrix based tumor suppression. MEC and T47D cells were treated with 10, 100, 1000, and 10000 nM PQ1 for 7 days. A graphical presentation of three experiment results is presented in log scale of PQ1 concentration. […] A 100 nM PQ1 inhibits 66% of colony growth compared to controls, without PQ1 treatment or 100 nM succinic acid.
# Colony Growth Using Soft Agar. Cells were treated with 0, 10, 100, 200 and 500 nM PQ1 for 7 days. Base agar plates were prepared containing 0.8% agar and 0.4% agar in Ham's F12. Cells (5×10^4 cells/33 mm^2 well) were suspended in 100 μl of Ham's F12 with 0.4% agar and plated. These plates were maintained at 37° C. for 7 days and examined for the presence of colonies. Individual colonies of 50 μm or greater were examined.
# Cx26 = assay: Western blot of Cx26 in T47D cells; format: cell-based, human; settings: 10, 100, 200 and 500 nM, 24 hours
# Method: T47D cells were dosed with PQ1 for 24 hours. The Western blot analysis was performed as described in Materials and Methods. Whole cell extract was analyzed for Cx 43, Cx32, and Cx26. Experiment was performed at least three times.
# Furthermore, whole cell extract of PQ1 treatment was analyzed for the changes in gap junctional proteins, connexins. Cells were treated with 10, 100, 200, and 500 nM PQ1 for 24 hours. Western blot analysis was performed against Cx26, Cx32, and Cx43 (FIG. 17). […] Anti-tubulin was used as a loading control.
# Western Blot Analysis. Cells were grown in serum supplemented RPMI media until they were 90% confluent in 75 cm^2 flasks. Cells were kept in starving media containing phenol red-free DMEM with 5% charcoal dextran stripped serum, overnight. Cells were dosed with 0, 10, 100, 200 and 500 nM of PQ1 for 24 hours. Cells were washed three times with cold PBS and then were harvested using lysis buffer (20 mM Tris pH 7.5, 0.5 mM EDTA, 0.5 mM EGTA, 0.5% Triton X-100) with 1:1000 dilution of protease inhibitors (Sigma-Aldrich, Saint Louis, Mo.). Cell lysate was sonicated and centrifuged at 13,000 rpm for 30 minutes at 4° C. […] Western blots were detected by enhanced chemiluminescence detection reagents (Pierce, Rockford, Ill., USA).
# T47D cells = assay: Electron microscopy of PQ1-treated cells; format: cell-based, human; settings: PQ1 treatment
# T47D breast cancer cells = assay: Xenograft tumor growth of T47D cells in Nu/Nu mice; format: in vivo
# Method: Mice were inoculated with 17β-estradiol (1.7 mg/pellet) before the injection of 1×10^7 T47D cells subcutaneously into the inguinal region of mammary fat pad. Animals received treatment at 1 μM PQ1 or 10 μM tamoxifen. The results after 6 days of injection show a decrease in tumor growth of PQ1-treated animals compared to control or tamoxifen.
# The anti-tumor effect of PQ1 was also observed in animal model. Nu/Nu mice were inoculated with estradiol-17β (1.7 mg/pellet) before the injection of 1×10^7 T47D breast cancer cells subcutaneously into inguinal region of mammary fat pad.
# Xenograft Tumors of T47D cells in Nu/Nu Mice. Nu/Nu mice were ordered from The Jackson Laboratory. Mice were inoculated with estradiol-17β (1.7 mg/pellet) before the injection of 1×10^7 T47D breast cancer cells subcutaneously into inguinal region of mammary fat pad. Cell viability of T47D cells were performed prior to injection. The tumor size was measured in three dimensions with calipers every 2 days starting at Day 7. […] When tumors reached 30-50 mm^3, three animals were randomly assigned to each treatment group. Animals were injected with 1 μM of PQ1 or 10 μM of tamoxifen and a single injection of treatment was set for 7 days and daily measurement of tumor size was recorded.
# Solubility in water = format: physicochemical; settings: succinic acid salt
smiles,measurement,setting,value
"COc1cc(NCCCN)c2nccc(C)c2c1Oc1cccc(C(F)(F)F)c1.O=C(O)CCC(=O)O [PQ1, 6-Methoxy-8-[(3-aminopropyl)amino]-4-methyl-5-(3-trifluoromethylphenyloxy) quinoline succinic acid]",cell viability compared to control,MEC [1]; 100 nM,95%
same,cell viability compared to control,MEC [1]; 200 nM,103%
same,cell viability,MEC [1]; 1 μM,50%
same,colony growth,MEC [2],no effect
same,Cx26 expression,Cx26,no effect
same,mitochondria by electron microscopy,T47D cells,Mitochondrial damage
same,tumor size compared to control,"T47D breast cancer cells; Day 2, 1 μM PQ1, single injection",decrease
same,decrease of tumor growth,"T47D breast cancer cells; Day 6 after one injection, 1 μM PQ1, compared to control",70%
same,tumor growth compared to control or tamoxifen,"T47D breast cancer cells; after 6 days of injection, 1 μM PQ1",decrease
same,solubility in water,Solubility in water,soluble in water
